Data reported in patent publication US4731383A, “Aminoguanidine compounds, their compositions and pharmaceutical uses” (Biogal Gyogyszergyar, priority 1983, dated 1988).
Where a name gives a salt, the structure may show the parent alone. Read-outs that look alike come from different tables or passages of the source.

Assays:
[1] = test system: mice treated with aconitin; experiment: animal or person; type: in vivo; conditions: Mus musculus, read-out: Delay in the appearance time of arrhythmia
Method: Arrhytmia was induced in male mice, weighing 20 to 25 g, by treating them continuously, at a rate of 0.2 ml/min with an infusion containing 5 μg/kg of aconitin. The test compound was administered to the animals either intraperitoneally (by injecting it into the abdominal cavity) 15 minutes before the start of the infusion, or orally 60 minutes before the onset of the infusion. The time of the appearance of arrhythmia was recorded, and the percentage of delay was calculated in relation to the data obtained in the controls, pretreated with 0.9 percent sodium chloride solution only [B. Vargaftig and J. L. Coignet: European J. of Pharmacol. 6, 49 to 55 (1969); N. K. Dadkar and B. K. Bhattachariya: Arch. Int. Pharmacodyn. 212, 297 to 301 (1974); D. U. Nwagwu, T. L. Holcslaw and S. J. Stohs: Arch. Int. Pharmacodyn. 229, 219 to 226 (1977)].

in vivo = conditions: mouse
[2] = test system: anaesthesized cats, fibrillation threshold of the heart; experiment: Determination of the fibrillation threshold in anaesthetized cats; type: in vivo; conditions: cat
Source text: The chests of the cats were opened under chloralose-urethane anaesthesia, a bipolar stimulating electrode was fixed onto the heart, and the heart was stimulated electrically with a frequency of 20 Hz, under continuously increasing current strength, until a fibrillo-flattern could be observed. This current strength was considered as the fibrillation threshold of the animal.

[3] = test system: right ventricle of isolated rabbit heart; experiment: Electrophysiological tests in the isolated rabbit heart, right ventricle; conditions: 2.0 mg/l, n = 4
Method: (§1) Hearts of rabbits of both sexes, weighing 1 to 2 kg, were removed, the right and left auricles and a segment of the right ventricle were prepared and placed into a vessel filled with nutrient solution. Bipolar platinum electrodes (a stimulating electrode and a lead electrode) were placed on the organ strips, and the electric stimulus threshold and the speed of impulse conduction were measured. The effective refractory period was determined on the basis of the maximal driving frequency.

[4] = test system: left auricle of isolated rabbit heart; experiment: Electrophysiological tests in the isolated rabbit heart, left auricle; conditions: 2.0 mg/l, n = 4
Method: as §1

[5] = 2.0 mg/kg i.v., 2 min following treatment
[6] = 2.0 mg/kg i.v., 10 min following treatment
[7] = 2.0 mg/kg i.v., 20 min following treatment
[8] = 4.0 mg/kg i.v., 2 min following treatment
[9] = 4.0 mg/kg i.v., 10 min following treatment
[10] = 4.0 mg/kg i.v., 20 min following treatment
[11] = 20 mg/kg i.d., 10 minutes following treatment
[12] = 20 mg/kg i.d., 20 minutes following treatment
[13] = 20 mg/kg i.d., 30 minutes following treatment
[14] = 20 mg/kg i.d., 40 minutes following treatment
[15] = 20 mg/kg i.d., 50 minutes following treatment
[16] = 20 mg/kg i.d., 60 minutes following treatment
[17] = 20 mg/kg i.d., 70 minutes following treatment
[18] = 20 mg/kg i.d., 80 minutes following treatment
[19] = 20 mg/kg i.d., 90 minutes following treatment
[20] = 20 mg/kg i.d., 100 minutes following treatment

Structure (SMILES): CN(C)C(=N)NNc1cccc(Cl)c1 [Example 9]
- change in vivo at 50 mg/kg ([1]; ip): 171%

Structure (SMILES): CC1CCCCN1C(=N)NNc1ccccc1Cl (stereo not drawn) [Example 8]
- change in vivo at 5 mg/kg ([1]; ip): 32%
- change in vivo at 10 mg/kg ([1]; ip): 110%

Structure (SMILES): CCN(CC)C(=N)NNc1ccccc1Cl [Example 3, 1-(2-Chlorophenyl)-4,4-diethyl-aminoguanidine hydrochloride]
- change in vivo at 10 mg/kg ([1]; ip): 108%
- change in vivo at 20 mg/kg ([1]; ip): 68%

Structure (SMILES): CN(C)C(=N)NNc1c(Cl)cccc1Cl [Example 2, 1-(2,6-Dichlorophenyl)-4,4-dimethyl-aminoguanidine]
- change in vivo at 25 mg/kg ([1]; ip): 79%
- change in vivo at 50 mg/kg ([1]; ip): 156%
- change in vivo at 25 mg/kg ([1]; po): 39%
- change in vivo at 50 mg/kg ([1]; po): 71%
- change in vivo at 100 mg/kg ([1]; po): 150%
- LD50 (in vivo; ip): 73 mg/kg
- LD50 (in vivo; po): 220 mg/kg

Structure (SMILES): CN(C)C(=N)NNc1ccccc1 [Example 18]
- change in vivo at 100 mg/kg ([1]; po): 74%

Structure (SMILES): Cc1ccccc1NNC(=N)N1CCOCC1 [Example 22]
- change in vivo at 50 mg/kg ([1]; ip): 100%

Structure (SMILES): Cc1ccccc1NNC(=N)N1CCCC1 [Example 7]
- change in vivo at 25 mg/kg ([1]; ip): 50%
- change in vivo at 50 mg/kg ([1]; ip): 128%
- change in vivo at 50 mg/kg ([1]; po): 54%
- change in vivo at 100 mg/kg ([1]; po): 137%

Structure (SMILES): Cc1cccc(C)c1NNC(=N)N1CCCC1 [Example 11]
- Percentual change in the fibrillation threshold [2, 5]: +130.6%
- Percentual change in the fibrillation threshold [2, 6]: +149.0%
- Percentual change in the fibrillation threshold [2, 7]: +163.3%
- Percentual change in the fibrillation threshold [2, 8]: +176.0%
- Percentual change in the fibrillation threshold [2, 9]: +328.0%
- Percentual change in the fibrillation threshold [2, 10]: +316.0%
- Percentual change in the fibrillation threshold [2, 11]: +5.8%
- Percentual change in the fibrillation threshold [2, 12]: +22.0%
- Percentual change in the fibrillation threshold [2, 13]: +43.8%
- Percentual change in the fibrillation threshold [2, 14]: +79.6%
- Percentual change in the fibrillation threshold [2, 15]: +115%
- Percentual change in the fibrillation threshold [2, 16]: +118%
- Percentual change in the fibrillation threshold [2, 17]: +141%
- Percentual change in the fibrillation threshold [2, 18]: +198%
- Percentual change in the fibrillation threshold [2, 19]: +209.5%
- Percentual change in the fibrillation threshold [2, 20]: +272.5%

Structure (SMILES): CCc1cccc(C)c1NNC(=N)N(C)C [Example 21]
- change in vivo at 25 mg/kg ([1]; ip): 110%
- change in vivo at 50 mg/kg ([1]; ip): 86%

Structure (SMILES): Cc1cccc(C)c1OCC(C)N.Cl (stereo not drawn) [Mexiletin, 1-(2,6-Dimethylphenoxy)-2-aminopropane hydrochloride, reference compound]
- change in vivo at 5 mg/kg ([1]; ip): 3.5%
- change in vivo at 10 mg/kg ([1]; ip): 7.7%
- change in vivo at 25 mg/kg ([1]; ip): 33%
- change in vivo at 50 mg/kg ([1]; ip): 83%
- change in vivo at 75 mg/kg ([1]; ip): 162%
- change in vivo at 100 mg/kg ([1]; po): 93%
- Percentual change in the fibrillation threshold ([2]; 10.0 mg/kg i.v., 10 min following treatment): +161.2%
- Percentual change in the fibrillation threshold ([2]; 10.0 mg/kg i.v., 20 min following treatment): +92.0%
- Change in conduction time [3]: +11%
- Change in electric stimulus threshold [3]: +6%
- Change in max. driving frequency [3]: -28%
- Change in conduction time [4]: +24%
- Change in electric stimulus threshold [4]: 36%
- Change in max. driving frequency [4]: -32%

Structure (SMILES): Cc1cccc(C)c1NNC(=N)N(C)C [Example 5]
- change in vivo at 25 mg/kg ([1]; ip): 113%
- change in vivo at 50 mg/kg ([1]; ip): 155%
- change in vivo at 100 mg/kg ([1]; po): 111%
- Percentual change in the fibrillation threshold ([2]; 0.5 mg/kg i.v., 2 min following treatment): +18.75%
- Percentual change in the fibrillation threshold ([2]; 0.5 mg/kg i.v., 10 min following treatment): +40.75%
- Percentual change in the fibrillation threshold ([2]; 0.5 mg/kg i.v., 20 min following treatment): +37.6%
- Percentual change in the fibrillation threshold ([2]; 1.0 mg/kg i.v., 2 min following treatment): +35.2%
- Percentual change in the fibrillation threshold ([2]; 1.0 mg/kg i.v., 10 min following treatment): +55.2%
- Percentual change in the fibrillation threshold ([2]; 1.0 mg/kg i.v., 20 min following treatment): +48.4%
- Percentual change in the fibrillation threshold [2, 5]: +101.1%
- Percentual change in the fibrillation threshold [2, 6]: +93.0%
- Percentual change in the fibrillation threshold [2, 7]: +94.15%
- Percentual change in the fibrillation threshold [2, 8]: +153.3%
- Percentual change in the fibrillation threshold [2, 9]: +125.65%
- Percentual change in the fibrillation threshold [2, 10]: +124.0%
- Percentual change in the fibrillation threshold ([2]; 8.0 mg/kg i.v., 2 min following treatment): +392.8%
- Percentual change in the fibrillation threshold ([2]; 8.0 mg/kg i.v., 10 min following treatment): +354.5%
- Percentual change in the fibrillation threshold ([2]; 8.0 mg/kg i.v., 20 min following treatment): +310.25%
- Percentual change in the fibrillation threshold [2, 11]: +22.2%
- Percentual change in the fibrillation threshold [2, 12]: +29.0%
- Percentual change in the fibrillation threshold [2, 13]: +94.0%
- Percentual change in the fibrillation threshold [2, 14]: +103.7%
- Percentual change in the fibrillation threshold [2, 15]: +100.4%
- Percentual change in the fibrillation threshold [2, 16]: +105.8%
- Percentual change in the fibrillation threshold [2, 17]: +100.3%
- Percentual change in the fibrillation threshold [2, 18]: +121.5%
- Percentual change in the fibrillation threshold [2, 19]: +132.8%
- Percentual change in the fibrillation threshold [2, 20]: +132.3%
- LD50 (in vivo; ip): 130 mg/kg
- LD50 (in vivo; po): 400 mg/kg

Structure (SMILES): C=C[C@H]1C[N@@]2CC[C@H]1C[C@@H]2[C@@H](O)c1ccnc2ccc(OC)cc12 [Quinidine, quinidine, reference compound]
- Percentual change in the fibrillation threshold ([2]; 10 mg/kg i.d., 10 minutes following treatment): +0.4%
- Percentual change in the fibrillation threshold ([2]; 10 mg/kg i.d., 20 minutes following treatment): +26.7%
- Percentual change in the fibrillation threshold ([2]; 10 mg/kg i.d., 30 minutes following treatment): +58.5%
- Percentual change in the fibrillation threshold ([2]; 10 mg/kg i.d., 40 minutes following treatment): +48.5%
- Percentual change in the fibrillation threshold ([2]; 10 mg/kg i.d., 50 minutes following treatment): +32.1%
- Percentual change in the fibrillation threshold ([2]; 10 mg/kg i.d., 70 minutes following treatment): +9.5%
- Percentual change in the fibrillation threshold ([2]; 10 mg/kg i.d., 80 minutes following treatment): +8.8%
- Percentual change in the fibrillation threshold ([2]; 10 mg/kg i.d., 90 minutes following treatment): +3.8%
- Percentual change in the fibrillation threshold ([2]; 10 mg/kg i.d., 100 minutes following treatment): 0.0%

Structure (SMILES): CN(C)C(=N)NNc1ccccc1Cl [Example 6]
- change in vivo at 50 mg/kg ([1]; ip): 114%
- change in vivo at 100 mg/kg ([1]; po): 70%

Structure (SMILES): CCN(CC)C(=N)NNc1ccccc1C [Example 4, 1-(2-Methyl-phenyl)-4,4-diethyl-aminoguanidine hydrochloride]
- change in vivo at 5 mg/kg ([1]; ip): 28%
- change in vivo at 10 mg/kg ([1]; ip): 77%
